The test system of this data set is CCRIS mutagenicity, Ames/micronucleus/aberration tests. In words: CCRIS mutagenicity studies.
Where [1] appears, read: Test System: AMES SALMONELLA TYPHIMURIUM, Strain/Indicator: TA100, Metabolic Activation: NONE, Method: STANDARD PLATE.
Setting [2] is: Test System: AMES SALMONELLA TYPHIMURIUM, Strain/Indicator: TA100, Metabolic Activation: RAT, LIVER, S-9, Method: STANDARD PLATE.
Setting [3] is: Test System: AMES SALMONELLA TYPHIMURIUM, Strain/Indicator: TA98, Metabolic Activation: NONE, Method: PREINCUBATION
Setting [4] is: Test System: AMES SALMONELLA TYPHIMURIUM, Strain/Indicator: TA100, Metabolic Activation: NONE, Method: PREINCUBATION
Where [5] appears, read: Test System: AMES SALMONELLA TYPHIMURIUM, Strain/Indicator: TA98, Metabolic Activation: NONE, Method: STANDARD PLATE.
Where [6] appears, read: Test System: AMES SALMONELLA TYPHIMURIUM, Strain/Indicator: TA98, Metabolic Activation: RAT, LIVER, S-9, AROCLOR 1254, Method: STANDARD PLATE.
[7] abbreviates: Test System: AMES SALMONELLA TYPHIMURIUM, Strain/Indicator: TA100, Metabolic Activation: RAT, LIVER, S-9, AROCLOR 1254, Method: STANDARD PLATE.

From PubChem BioAssay AID1259407 (Chemical Carcinogenesis Research Information System (CCRIS), 2018) come the findings set out here.

SMILES strings stand for the structures. Calls of active or inactive are those of the source. How the calls were made is not given here.

Regarding `CCCCOS(=O)(=O)c1ccc(C)cc1`, the mutagenic call is, setting by setting: (End Point: IN VITRO MICRONUCLEUS, Test System: MOUSE LYMPHOMA L5178Y CELLS, Metabolic Activation: NONE) “active; positive”; (End Point: IN VITRO MICRONUCLEUS, Test System: MOUSE LYMPHOMA L5178Y CELLS, Metabolic Activation: RAT, LIVER, S-9) “inactive; negative”; (End Point: In vitro micronucleus, Test System: Chinese Hamster Ovary (CHO-WBL) cells, Metabolic Activation: None) “active; positive (p<0.01)”; under setting [1], “active; positive”; under setting [2], “active; positive”.
Turning to `COc1cc2oc(-c3ccc(O)cc3)c(O)c(=O)c2cc1OC`, the mutagenic call is, setting by setting: under setting [3], “inactive; negative”; (Test System: AMES SALMONELLA TYPHIMURIUM, Strain/Indicator: TA98, Metabolic Activation: RAT LIVER S-9, SODIUM BARBITAL AND BETA-NAPHTHAFLAVONE, Method: PREINCUBATION) “inactive; negative”; under setting [4], “inactive; negative”; (Test System: AMES SALMONELLA TYPHIMURIUM, Strain/Indicator: TA100, Metabolic Activation: RAT LIVER S-9, SODIUM BARBITAL AND BETA-NAPHTHAFLAVONE, Method: PREINCUBATION) “inactive; negative”.
Turning to `OCC(O)CN1CCN(c2ccccc2)CC1` (configuration not stated), the mutagenic call runs as follows: (Test System: CHINESE HAMSTER V-79, Strain/Indicator: V-79/6-THIOGUANINE, Metabolic Activation: NONE) “inactive; negative”; (Test System: CHINESE HAMSTER V-79, Strain/Indicator: V-79/6-THIOGUANINE, Metabolic Activation: S-9) “inactive; negative”.
`O=C1c2ccc3ccccc3c2-c2c1ccc1ccccc21`: the mutagenic call is “inactive; negative” under setting [5], “active; positive” under setting [6], “inactive; negative” under setting [1] and “active; positive” under setting [7].
With `Clc1c2ccccc2cc2ccccc12`, the mutagenic call under setting [6] was “active; positive” and the mutagenic call under setting [7] was “active; positive”.
Regarding `[Cl][Pd][Cl]`, the mutagenic call was “inactive; negative” (Test System: AMES SALMONELLA TYPHIMURIUM, Strain/Indicator: TA98, Metabolic Activation: HAMSTER, LIVER, S-9, AROCLOR 1254 (10%), Method: PREINCUBATION); “inactive; negative” under setting [3]; “inactive; negative” (Test System: AMES SALMONELLA TYPHIMURIUM, Strain/Indicator: TA98, Metabolic Activation: RAT, LIVER, S-9, AROCLOR 1254 (10%), Method: PREINCUBATION); “inactive; negative” (Test System: AMES SALMONELLA TYPHIMURIUM, Strain/Indicator: TA100, Metabolic Activation: HAMSTER, LIVER, S-9, AROCLOR 1254 (10%), Method: PREINCUBATION); “inactive; negative” under setting [4]; “inactive; negative” (Test System: AMES SALMONELLA TYPHIMURIUM, Strain/Indicator: TA100, Metabolic Activation: RAT, LIVER, S-9, AROCLOR 1254 (10%), Method: PREINCUBATION). Moreover, the mutagenic call (Test System: AMES SALMONELLA TYPHIMURIUM, Strain/Indicator: TA1535, Metabolic Activation: HAMSTER, LIVER, S-9, AROCLOR 1254 (10%), Method: PREINCUBATION) was “inactive; negative”; the mutagenic call (Test System: AMES SALMONELLA TYPHIMURIUM, Strain/Indicator: TA1535, Metabolic Activation: NONE, Method: PREINCUBATION) was “inactive; negative”; the mutagenic call (Test System: AMES SALMONELLA TYPHIMURIUM, Strain/Indicator: TA1535, Metabolic Activation: RAT, LIVER, S-9, AROCLOR 1254 (10%), Method: PREINCUBATION) was “inactive; negative”; the mutagenic call (Test System: AMES SALMONELLA TYPHIMURIUM, Strain/Indicator: TA1537, Metabolic Activation: HAMSTER, LIVER, S-9, AROCLOR 1254 (10%), Method: PREINCUBATION) was “inactive; negative”; the mutagenic call (Test System: AMES SALMONELLA TYPHIMURIUM, Strain/Indicator: TA1537, Metabolic Activation: NONE, Method: PREINCUBATION) was “inactive; negative”; the mutagenic call (Test System: AMES SALMONELLA TYPHIMURIUM, Strain/Indicator: TA1537, Metabolic Activation: RAT, LIVER, S-9, AROCLOR 1254 (10%), Method: PREINCUBATION) is “inactive; negative”.
As to `O=C1OC2(c3cc(Br)c(O)c(Br)c3Oc3c2cc(Br)c(O)c3Br)c2c(Cl)ccc(Cl)c21`, where the note is “End Point: IN VIVO MICRONUCLEUS, Test System: BONE MARROW POLYCHROMATIC ERYTHROCYTES, Species: MOUSE, Strain/Sex: DDY/MALE, Route: IP”, the mutagenic call was “inactive; negative”.
For `Cc1ccc(C)c(N=Nc2c(O)ccc3ccccc23)c1`, the mutagenic call under setting [5] was “inactive; negative”; the mutagenic call (Test System: AMES SALMONELLA TYPHIMURIUM, Strain/Indicator: TA98, Metabolic Activation: RAT, LIVER, S-9, Method: STANDARD PLATE) is “inactive; negative”; the mutagenic call under setting [1] is “inactive; negative”; the mutagenic call under setting [2] was “inactive; negative”.
Take `N[C@@H](CS)C(=O)NCC(=O)O`: the mutagenic call (Test System: AMES SALMONELLA TYPHIMURIUM, Strain/Indicator: TA102, Metabolic Activation: NONE, Method: STANDARD PLATE) was “active; positive”.
For `CCCCOCCOCCOCc1cc2c(cc1CCC)OCO2`, the mutagenic call reads like this: (End Point: IN VITRO CHROMOSOMAL ABERRATIONS, Test System: CHINESE HAMSTER OVARY CELLS, Metabolic Activation: NONE) “inactive; negative; precipitation occurred at 287 ug/ml”; (End Point: IN VITRO CHROMOSOMAL ABERRATIONS, Test System: CHINESE HAMSTER OVARY CELLS, Metabolic Activation: RAT, LIVER, S-9, AROCLOR 1254) “inactive; negative; precipitation occurred at 496 ug/ml”; (Test System: AMES SALMONELLA TYPHIMURIUM, Strain/Indicator: TA97, Metabolic Activation: NONE, Method: PREINCUBATION) “inactive; negative”; (Test System: AMES SALMONELLA TYPHIMURIUM, Strain/Indicator: TA97, Metabolic Activation: RAT, LIVER, S-9, AROCLOR 1254, Method: PREINCUBATION) “inactive; negative”; under setting [5], “inactive; negative”; under setting [6], “inactive; negative”. Moreover, the mutagenic call under setting [1] was “inactive; negative”; the mutagenic call under setting [7] is “inactive; negative”; the mutagenic call (Test System: AMES SALMONELLA TYPHIMURIUM, Strain/Indicator: TA102, Metabolic Activation: NONE, Method: PREINCUBATION) was “inactive; negative”; the mutagenic call (Test System: AMES SALMONELLA TYPHIMURIUM, Strain/Indicator: TA102, Metabolic Activation: RAT, LIVER, S-9, AROCLOR 1254, Method: PREINCUBATION) is “inactive; negative”; the mutagenic call (Test System: AMES SALMONELLA TYPHIMURIUM, Strain/Indicator: TA1535, Metabolic Activation: NONE, Method: STANDARD PLATE) is “inactive; negative”; the mutagenic call (Test System: AMES SALMONELLA TYPHIMURIUM, Strain/Indicator: TA1535, Metabolic Activation: RAT, LIVER, S-9, AROCLOR 1254, Method: STANDARD PLATE) was “inactive; negative”. In addition, the mutagenic call (Test System: AMES SALMONELLA TYPHIMURIUM, Strain/Indicator: TA1537, Metabolic Activation: NONE, Method: STANDARD PLATE) is “inactive; negative”; the mutagenic call (Test System: AMES SALMONELLA TYPHIMURIUM, Strain/Indicator: TA1537, Metabolic Activation: RAT, LIVER, S-9, AROCLOR 1254, Method: STANDARD PLATE) was “inactive; negative”; the mutagenic call (Test System: AMES SALMONELLA TYPHIMURIUM, Strain/Indicator: TA1538, Metabolic Activation: NONE, Method: STANDARD PLATE) is “inactive; negative”; the mutagenic call (Test System: AMES SALMONELLA TYPHIMURIUM, Strain/Indicator: TA1538, Metabolic Activation: RAT, LIVER, S-9, AROCLOR 1254, Method: STANDARD PLATE) is “inactive; negative”; the mutagenic call (Test System: CHINESE HAMSTER OVARY, Strain/Indicator: CHO-K1-BH4 (HGPRT)/6-THIOGUANINE, Metabolic Activation: NONE) was “inactive; negative”; the mutagenic call (Test System: CHINESE HAMSTER OVARY, Strain/Indicator: CHO-K1-BH4 (HGPRT)/6-THIOGUANINE, Metabolic Activation: RAT, LIVER, S-9, AROCLOR 1254) was “inactive; negative”. The mutagenic call by setting is: (Test System: UDS HUMAN HEPATOCYTES, Strain/Indicator: THY INCORP, Metabolic Activation: NONE, Method: AUTORADIOGRAPHY) “inactive; negative”; (Test System: UDS RAT HEPATOCYTES, Strain/Indicator: THY INCORP, Metabolic Activation: NONE, Method: AUTORADIOGRAPHY) “inactive; negative”.
Turning to `CCc1cccc(CC)c1NC(C)=O`, the mutagenic call was “inactive; negative” under setting [3] and “inactive; negative” (Test System: AMES SALMONELLA TYPHIMURIUM, Strain/Indicator: TA98, Metabolic Activation: RAT, LIVER, MICROSOMES, PHENOBARBITAL, Method: PREINCUBATION).
